From the supplement of paper PMC10307832

How the values were obtained:
Assay in all cases: relative viability (nuclei count vs DMSO), 5 days (fraction); higher = more cells survive
NCI-H460 = test system: NCI-H460
In short: (§1)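 Five library-drug doses in √10 steps were combined with a fixed anchor-drug dose, or a single drug was given alone, by pin tool to lung cancer cell lines in 1536-well plates the day after seeding. Nuclei were stained and counted after 5 days. Relative viability is the nuclei count in treated wells over that in vehicle wells, taken as the median of duplicate plates.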

RERF-LC-KJ = test system: RERF-LC-KJ
In short: as §1

NCI-H650 = test system: NCI-H650
In short: as §1

NCI-H1793 = test system: NCI-H1793
In short: as §1

SW 1573 = test system: SW 1573
In short: as §1

NCI-H520 = test system: NCI-H520
In short: as §1

NCI-H838 = test system: NCI-H838
In short: as §1

EKVX = test system: EKVX
In short: as §1

NCI-H2347 = test system: NCI-H2347
In short: as §1

NCI-H1666 = test system: NCI-H1666
In short: as §1

A-427 = test system: A-427
In short: as §1

LCLC-97TM1 = test system: LCLC-97TM1
In short: as §1

NCI-H1993 = test system: NCI-H1993
In short: as §1

NCI-H23 = test system: NCI-H23
In short: as §1

NCI-H1915 = test system: NCI-H1915
In short: as §1

LC-2-ad = test system: LC-2-ad
In short: as §1

BEN = test system: BEN
In short: as §1

LU99A = test system: LU99A
In short: as §1

NCI-H1355 = test system: NCI-H1355
In short: as §1

NCI-H1650 = test system: NCI-H1650
In short: as §1

PC-3 [JPC-3] = test system: PC-3 [JPC-3]
In short: as §1

NCI-H2228 = test system: NCI-H2228
In short: as §1

LOU-NH91 = test system: LOU-NH91
In short: as §1

`Cc1cnc(-c2cnc(NCCNc3ccc(C#N)cn3)nc2-c2ccc(Cl)cc2Cl)[nH]1` + Cc1nc(Nc2ncc(C(=O)Nc3c(C)cccc3Cl)s2)cc(N2CCN(CCO)CC2)n1 [Dasatinib] (partner 0.075 µM) showed a relative viability (NCI-H460; first compound 0.08 µM) of 0.543, a relative viability (NCI-H460; first compound 0.253 µM) of 0.404 and a relative viability (NCI-H460; first compound 0.8 µM) of 0.557. The relative viability (NCI-H460; first compound 2.53 µM) was 0.454, the relative viability (RERF-LC-KJ; first compound 0.08 µM) was 0.9 and the relative viability (RERF-LC-KJ; first compound 0.253 µM) was 0.765. For the same compound, the relative viability (RERF-LC-KJ; first compound 0.8 µM) was 0.796, the relative viability (RERF-LC-KJ; first compound 2.53 µM) was 0.752 and the relative viability (NCI-H650; first compound 0.08 µM) was 0.497. The relative viability (NCI-H650; first compound 0.253 µM) was 0.462, the relative viability (NCI-H650; first compound 0.8 µM) was 0.511 and the relative viability (NCI-H650; first compound 2.53 µM) was 0.495. It also gave a relative viability (NCI-H1793; first compound 0.08 µM) of 0.384, a relative viability (NCI-H1793; first compound 0.253 µM) of 0.365 and a relative viability (NCI-H1793; first compound 0.8 µM) of 0.411. The relative viability (NCI-H1793; first compound 2.53 µM) was 0.468, the relative viability (SW 1573; first compound 0.08 µM) was 0.687 and the relative viability (SW 1573; first compound 0.253 µM) was 0.395. The relative viability (SW 1573; first compound 0.8 µM) was 0.493, the relative viability (SW 1573; first compound 2.53 µM) was 0.168 and the relative viability (NCI-H520; first compound 0.08 µM) was 0.219. For the same compound, the relative viability (NCI-H520; first compound 0.253 µM) was 0.186, the relative viability (NCI-H520; first compound 0.8 µM) was 0.245 and the relative viability (NCI-H520; first compound 2.53 µM) was 0.299. It also gave a relative viability (NCI-H838; first compound 0.08 µM) of 0.276, a relative viability (NCI-H838; first compound 0.253 µM) of 0.307 and a relative viability (NCI-H838; first compound 0.8 µM) of 0.306. The relative viability (NCI-H838; first compound 2.53 µM) was 0.363, the relative viability (EKVX; first compound 0.08 µM) was 0.608 and the relative viability (EKVX; first compound 0.253 µM) was 0.518. It also gave a relative viability (EKVX; first compound 0.8 µM) of 0.494, a relative viability (EKVX; first compound 2.53 µM) of 0.493 and a relative viability (NCI-H2347; first compound 0.08 µM) of 0.279. For the same compound, the relative viability (NCI-H2347; first compound 0.253 µM) was 0.309, the relative viability (NCI-H2347; first compound 0.8 µM) was 0.283 and the relative viability (NCI-H2347; first compound 2.53 µM) was 0.333. For the same compound, the relative viability (NCI-H1666; first compound 0.08 µM) was 0.897, the relative viability (NCI-H1666; first compound 0.253 µM) was 0.671 and the relative viability (NCI-H1666; first compound 0.8 µM) was 0.845. The relative viability (NCI-H1666; first compound 2.53 µM) was 0.7, the relative viability (A-427; first compound 0.08 µM) was 0.747 and the relative viability (A-427; first compound 0.253 µM) was 0.589. It also gave a relative viability (A-427; first compound 0.8 µM) of 0.738, a relative viability (A-427; first compound 2.53 µM) of 0.682 and a relative viability (LCLC-97TM1; first compound 0.08 µM) of 0.796. The relative viability (LCLC-97TM1; first compound 0.8 µM) was 0.887, the relative viability (LCLC-97TM1; first compound 2.53 µM) was 0.741 and the relative viability (NCI-H1993; first compound 0.08 µM) was 0.58. The relative viability (NCI-H1993; first compound 0.253 µM) was 0.568, the relative viability (NCI-H1993; first compound 0.8 µM) was 0.499 and the relative viability (NCI-H1993; first compound 2.53 µM) was 0.996. For the same compound, the relative viability (NCI-H23; first compound 0.08 µM) was 0.879, the relative viability (NCI-H23; first compound 0.253 µM) was 0.751 and the relative viability (NCI-H23; first compound 0.8 µM) was 0.871. It also gave a relative viability (NCI-H23; first compound 2.53 µM) of 0.713, a relative viability (NCI-H1915; first compound 0.08 µM) of 0.339 and a relative viability (NCI-H1915; first compound 0.253 µM) of 0.294. The relative viability (NCI-H1915; first compound 0.8 µM) was 0.342, the relative viability (NCI-H1915; first compound 2.53 µM) was 0.311 and the relative viability (LC-2-ad; first compound 0.08 µM) was 0.662. It also gave a relative viability (LC-2-ad; first compound 0.253 µM) of 0.486, a relative viability (LC-2-ad; first compound 2.53 µM) of 0.471 and a relative viability (BEN; first compound 0.08 µM) of 0.332. The relative viability (BEN; first compound 0.253 µM) was 0.364, the relative viability (BEN; first compound 0.8 µM) was 0.291 and the relative viability (BEN; first compound 2.53 µM) was 0.351. It also gave a relative viability (LU99A; first compound 0.08 µM) of 0.507, a relative viability (LU99A; first compound 0.253 µM) of 0.487 and a relative viability (LU99A; first compound 0.8 µM) of 0.528. It also gave a relative viability (LU99A; first compound 2.53 µM) of 0.643, a relative viability (NCI-H1355; first compound 0.08 µM) of 0.749 and a relative viability (NCI-H1355; first compound 0.253 µM) of 0.664. It also gave a relative viability (NCI-H1355; first compound 0.8 µM) of 0.746, a relative viability (NCI-H1355; first compound 2.53 µM) of 0.689 and a relative viability (NCI-H1650; first compound 0.08 µM) of 0.31. The relative viability (NCI-H1650; first compound 0.253 µM) was 0.345, the relative viability (NCI-H1650; first compound 0.8 µM) was 0.295 and the relative viability (NCI-H1650; first compound 2.53 µM) was 0.312. It also gave a relative viability (PC-3 [JPC-3]; first compound 0.08 µM) of 0.926, a relative viability (PC-3 [JPC-3]; first compound 0.253 µM) of 0.88 and a relative viability (PC-3 [JPC-3]; first compound 0.8 µM) of 0.929. It also gave a relative viability (PC-3 [JPC-3]; first compound 2.53 µM) of 1, a relative viability (NCI-H2228; first compound 0.08 µM) of 0.548 and a relative viability (NCI-H2228; first compound 0.253 µM) of 0.554. It also gave a relative viability (NCI-H2228; first compound 0.8 µM) of 0.494, a relative viability (NCI-H2228; first compound 2.53 µM) of 0.424 and a relative viability (LOU-NH91; first compound 0.08 µM) of 0.562. It also gave a relative viability (LOU-NH91; first compound 0.253 µM) of 0.558, a relative viability (LOU-NH91; first compound 0.8 µM) of 0.55 and a relative viability (LOU-NH91; first compound 2.53 µM) of 0.514.
